What was measured:
[1] = target: Cyclin-dependent kinase 14 (Homo sapiens) (UniProt O94921); assay: Selectivity interaction (Kinase panel (KiNativ target engagement assay in Jurkat cells)) EUB0001635a CDK14; type: cell-based; conditions: at 1 µM
[2] = target: T1, Mitogen-activated protein kinase kinase kinase kinase 2 (Homo sapiens) (UniProt Q12851); conditions: at 10 µM
T1 sequence (whole entry): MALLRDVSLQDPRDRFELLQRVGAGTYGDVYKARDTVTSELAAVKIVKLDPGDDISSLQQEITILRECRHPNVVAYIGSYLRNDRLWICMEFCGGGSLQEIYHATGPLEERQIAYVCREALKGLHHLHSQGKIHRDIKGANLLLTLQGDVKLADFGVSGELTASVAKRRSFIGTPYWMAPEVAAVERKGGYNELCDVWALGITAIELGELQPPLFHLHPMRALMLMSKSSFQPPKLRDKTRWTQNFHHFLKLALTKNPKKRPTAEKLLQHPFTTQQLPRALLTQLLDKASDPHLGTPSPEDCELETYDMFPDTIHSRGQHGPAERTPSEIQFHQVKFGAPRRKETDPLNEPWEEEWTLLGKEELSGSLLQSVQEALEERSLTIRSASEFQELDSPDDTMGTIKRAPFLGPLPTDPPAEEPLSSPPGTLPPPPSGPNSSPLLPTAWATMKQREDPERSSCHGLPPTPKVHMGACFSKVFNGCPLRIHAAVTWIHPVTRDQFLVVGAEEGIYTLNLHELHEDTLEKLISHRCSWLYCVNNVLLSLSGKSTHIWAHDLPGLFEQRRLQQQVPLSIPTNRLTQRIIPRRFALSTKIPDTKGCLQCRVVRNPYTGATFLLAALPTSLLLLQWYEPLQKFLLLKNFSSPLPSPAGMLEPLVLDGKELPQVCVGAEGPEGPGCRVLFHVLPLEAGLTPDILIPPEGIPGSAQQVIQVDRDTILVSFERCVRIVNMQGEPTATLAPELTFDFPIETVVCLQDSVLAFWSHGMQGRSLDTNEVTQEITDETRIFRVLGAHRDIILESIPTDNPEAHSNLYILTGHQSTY

[3] = target: T2, Serine/threonine-protein kinase NLK (Homo sapiens) (UniProt Q9UBE8); assay: Selectivity interaction (KinomeScan (DiscoverX)) EUB0001619a NLK; conditions: at 1 µM
T2 sequence (whole entry): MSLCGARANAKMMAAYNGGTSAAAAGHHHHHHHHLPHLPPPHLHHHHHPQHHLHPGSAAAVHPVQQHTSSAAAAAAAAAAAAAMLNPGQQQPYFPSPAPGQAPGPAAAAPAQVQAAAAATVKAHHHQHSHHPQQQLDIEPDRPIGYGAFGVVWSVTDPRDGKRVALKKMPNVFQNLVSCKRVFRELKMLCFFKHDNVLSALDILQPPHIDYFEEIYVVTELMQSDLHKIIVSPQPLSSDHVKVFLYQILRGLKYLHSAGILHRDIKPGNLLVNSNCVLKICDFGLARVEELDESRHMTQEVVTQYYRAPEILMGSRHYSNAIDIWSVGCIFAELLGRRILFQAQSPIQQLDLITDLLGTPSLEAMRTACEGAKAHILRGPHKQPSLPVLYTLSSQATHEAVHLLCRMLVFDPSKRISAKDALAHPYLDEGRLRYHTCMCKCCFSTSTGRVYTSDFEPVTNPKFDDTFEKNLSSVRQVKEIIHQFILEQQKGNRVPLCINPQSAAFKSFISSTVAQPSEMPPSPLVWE

[4] = system: Phosphatidylinositol 4,5-bisphosphate 3-kinase catalytic subunit alpha isoform (Homo sapiens), P42336 [E545A]; conditions: at 10 µM
[5] = target: Casein kinase I isoform gamma-1 (Homo sapiens) (UniProt Q9HCP0); assay: Selectivity interaction (KinomeScan (DiscoverX)) EUB0000618a CSNK1G1; conditions: at 10 µM
[6] = target: T3, Protein kinase C iota type (Homo sapiens) (UniProt P41743); assay: Selectivity interaction (ActivX KiNativ screen (kinase selectivity in THP-1 cell lysates)) EUB0000639a PRKCI; type: subcellular; conditions: lysate, at 0.04 µM
T3 sequence (whole entry): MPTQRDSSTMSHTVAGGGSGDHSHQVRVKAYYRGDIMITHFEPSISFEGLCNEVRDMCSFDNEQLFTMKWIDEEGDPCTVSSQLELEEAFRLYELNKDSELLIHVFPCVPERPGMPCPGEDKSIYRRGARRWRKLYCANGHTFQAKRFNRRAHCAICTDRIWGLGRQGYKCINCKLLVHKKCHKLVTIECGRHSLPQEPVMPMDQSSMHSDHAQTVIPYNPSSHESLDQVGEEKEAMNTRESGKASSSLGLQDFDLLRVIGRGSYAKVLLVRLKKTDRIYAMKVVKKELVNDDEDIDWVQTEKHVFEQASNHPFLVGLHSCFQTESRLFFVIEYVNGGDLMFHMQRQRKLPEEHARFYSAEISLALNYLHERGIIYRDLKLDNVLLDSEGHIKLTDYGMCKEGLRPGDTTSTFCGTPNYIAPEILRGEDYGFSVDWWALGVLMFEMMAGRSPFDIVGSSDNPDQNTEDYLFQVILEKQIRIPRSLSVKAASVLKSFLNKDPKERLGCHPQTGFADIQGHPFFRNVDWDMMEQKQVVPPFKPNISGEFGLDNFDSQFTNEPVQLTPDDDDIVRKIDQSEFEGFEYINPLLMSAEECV

[7] = target: Ribosomal protein S6 kinase alpha-5 (Homo sapiens) (UniProt O75582); assay: Selectivity interaction (Ambit KINOMEscan and KiNATiv profiling in Jurkat cells) EUB0000090b RPS6KA5; type: cell-based; conditions: at 1 µM
Chain of Ribosomal protein S6 kinase alpha-5 (Homo sapiens) (O75582 whole entry, looked up): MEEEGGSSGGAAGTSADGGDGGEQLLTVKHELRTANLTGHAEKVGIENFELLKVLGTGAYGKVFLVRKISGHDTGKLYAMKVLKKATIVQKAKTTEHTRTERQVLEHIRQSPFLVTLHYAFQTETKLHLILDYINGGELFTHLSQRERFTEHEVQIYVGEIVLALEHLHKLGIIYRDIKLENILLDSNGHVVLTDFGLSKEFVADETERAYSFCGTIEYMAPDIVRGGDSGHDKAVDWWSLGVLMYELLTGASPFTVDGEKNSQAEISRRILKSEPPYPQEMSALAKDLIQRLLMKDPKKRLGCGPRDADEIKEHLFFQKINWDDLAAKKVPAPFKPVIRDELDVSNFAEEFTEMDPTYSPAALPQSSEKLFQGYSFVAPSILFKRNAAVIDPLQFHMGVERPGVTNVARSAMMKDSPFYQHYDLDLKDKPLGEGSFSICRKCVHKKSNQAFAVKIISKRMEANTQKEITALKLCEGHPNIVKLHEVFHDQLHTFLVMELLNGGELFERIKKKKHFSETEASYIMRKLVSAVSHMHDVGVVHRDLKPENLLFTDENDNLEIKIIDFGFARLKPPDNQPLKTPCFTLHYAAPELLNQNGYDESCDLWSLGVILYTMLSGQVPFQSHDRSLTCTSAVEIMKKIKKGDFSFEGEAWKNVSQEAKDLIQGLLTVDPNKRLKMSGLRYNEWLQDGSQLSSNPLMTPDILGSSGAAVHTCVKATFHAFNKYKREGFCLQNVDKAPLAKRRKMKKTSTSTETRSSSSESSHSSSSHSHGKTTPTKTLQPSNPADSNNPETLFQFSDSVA

Chain of Cyclin-dependent kinase 14 (Homo sapiens) (O94921 whole entry): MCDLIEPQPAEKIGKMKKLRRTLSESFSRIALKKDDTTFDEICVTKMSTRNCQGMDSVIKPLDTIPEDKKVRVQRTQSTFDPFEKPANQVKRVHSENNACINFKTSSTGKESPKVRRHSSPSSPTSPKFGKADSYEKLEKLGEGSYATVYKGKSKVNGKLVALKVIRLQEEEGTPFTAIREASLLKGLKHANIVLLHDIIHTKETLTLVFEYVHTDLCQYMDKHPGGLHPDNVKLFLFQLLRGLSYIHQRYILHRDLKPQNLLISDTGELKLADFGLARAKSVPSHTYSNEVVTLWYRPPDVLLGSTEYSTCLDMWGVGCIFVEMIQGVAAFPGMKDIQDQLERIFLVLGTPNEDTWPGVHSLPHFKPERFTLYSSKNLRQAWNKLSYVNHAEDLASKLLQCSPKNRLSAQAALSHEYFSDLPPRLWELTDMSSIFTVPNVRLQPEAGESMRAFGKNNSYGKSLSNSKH
Chain of Casein kinase I isoform gamma-1 (Homo sapiens) (Q9HCP0 whole entry, looked up, canonical isoform): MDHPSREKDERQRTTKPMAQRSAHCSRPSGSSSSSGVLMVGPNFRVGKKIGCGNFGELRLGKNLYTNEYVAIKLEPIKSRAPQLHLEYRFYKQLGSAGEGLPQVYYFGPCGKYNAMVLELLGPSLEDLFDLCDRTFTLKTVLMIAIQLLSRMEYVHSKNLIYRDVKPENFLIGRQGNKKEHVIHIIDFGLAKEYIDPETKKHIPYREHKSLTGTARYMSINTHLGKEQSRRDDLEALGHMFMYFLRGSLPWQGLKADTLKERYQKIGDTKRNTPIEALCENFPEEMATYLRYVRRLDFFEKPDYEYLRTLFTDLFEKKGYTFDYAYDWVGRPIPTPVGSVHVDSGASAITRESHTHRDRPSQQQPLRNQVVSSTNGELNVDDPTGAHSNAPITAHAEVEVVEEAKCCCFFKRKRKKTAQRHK
Chain of Phosphatidylinositol 4,5-bisphosphate 3-kinase catalytic subunit alpha isoform (Homo sapiens), P42336 [E545A] (P42336 whole entry E545A, canonical isoform): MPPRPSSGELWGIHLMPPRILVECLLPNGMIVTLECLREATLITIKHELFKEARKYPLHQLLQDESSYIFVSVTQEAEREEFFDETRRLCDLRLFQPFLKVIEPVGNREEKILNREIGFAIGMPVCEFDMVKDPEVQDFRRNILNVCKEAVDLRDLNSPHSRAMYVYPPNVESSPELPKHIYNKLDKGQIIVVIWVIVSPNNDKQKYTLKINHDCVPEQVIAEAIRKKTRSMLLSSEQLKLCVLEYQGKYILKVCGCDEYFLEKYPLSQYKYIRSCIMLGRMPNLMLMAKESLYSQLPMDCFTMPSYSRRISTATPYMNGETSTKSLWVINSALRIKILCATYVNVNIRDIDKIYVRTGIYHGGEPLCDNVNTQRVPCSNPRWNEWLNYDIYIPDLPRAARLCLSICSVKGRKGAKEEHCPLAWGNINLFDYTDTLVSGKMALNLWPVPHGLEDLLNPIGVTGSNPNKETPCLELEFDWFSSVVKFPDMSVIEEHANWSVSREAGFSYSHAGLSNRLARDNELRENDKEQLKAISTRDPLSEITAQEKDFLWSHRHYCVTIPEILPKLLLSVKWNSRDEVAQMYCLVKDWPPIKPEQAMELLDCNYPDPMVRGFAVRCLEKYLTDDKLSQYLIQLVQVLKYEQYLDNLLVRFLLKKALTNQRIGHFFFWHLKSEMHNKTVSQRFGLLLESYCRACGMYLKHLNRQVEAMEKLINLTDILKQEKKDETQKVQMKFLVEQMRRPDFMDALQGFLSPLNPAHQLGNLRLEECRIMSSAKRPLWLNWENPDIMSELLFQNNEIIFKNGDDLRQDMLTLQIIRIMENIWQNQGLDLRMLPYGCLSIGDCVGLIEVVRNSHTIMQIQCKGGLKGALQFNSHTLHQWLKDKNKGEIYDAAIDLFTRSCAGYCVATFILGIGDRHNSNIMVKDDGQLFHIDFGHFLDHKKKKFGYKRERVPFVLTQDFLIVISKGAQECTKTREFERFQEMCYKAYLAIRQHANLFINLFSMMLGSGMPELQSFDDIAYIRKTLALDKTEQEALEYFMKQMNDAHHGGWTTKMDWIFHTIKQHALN

**Q.** How did the % of engagement [1] turn out when `C=CC(=O)Nc1ccc(C(=O)Nc2[nH]nc3c2CN(C(=O)N[C@H](CN(C)C)c2ccccc2)C3(C)C)cc1` was run?
**A.** -33.3%

**Q.** `Cc1cc([C@@H](C)Nc2ccccc2C(=O)O)c2nc(N3CCOCC3)cc(=O)n2c1` [AZD-6482] was tested. Which % of control [2] did it give?
**A.** 56%

**Q.** For `N#Cc1cccc(-c2c[nH]c3ncnc(N4CCOCC4)c23)c1`, which % of control [3] is on record?
**A.** 85%

**Q.** How did the % of control [4] turn out when `CNC(=O)Nc1ccc(-c2nc(N3CC4CCC(C3)O4)c3cnn(C4CCC5(CC4)OCCO5)c3n2)cc1` was run?
**A.** 8.8%

**Q.** How did the % of control [5] turn out when `O[C@H]1CC[C@H](Nc2ncc3nc(Nc4c(F)cc(F)cc4F)n([C@H]4CCOC4)c3n2)CC1` was run?
**A.** 100%

**Q.** With `CC[C@@H]1[C@H](F)C(=O)N[C@@H]1COc1nccc2cc(C(N)=O)c(OC)cc12` [ZIMLOVISERTIB] as the compound, how does the % of inhibition [6] read?
**A.** -0.9%

**Q.** With `CN(C)C/C=C/C(=O)Nc1ccc(C(=O)N2CCCC(Nc3ncc(Cl)c(-c4c[nH]c5ccccc45)n3)C2)cc1` (configuration not stated) as the compound, how does the % of control [7] read?
**A.** 86%

— ChEMBL document CHEMBL5465560, “Selectivity Literature for EUbOPEN Chemogenomic Library” (2024)
